Assay [1] concerns human skin grafts on immunodeficient mice. The assay is described as follows: Humanized psoriasis mouse model (human skin grafts, PBMC injection). It counts as in vivo. The following applies: twice daily topical; after three weeks. The source says:
A humanized mouse model of psoriasis is a model that involves grafting of human non-lesional skin biopsies from psoriasis patients onto the back skin of immunodeficient mice. After the human skin has grafted (3 to 4 weeks later), T-cell activated human peripheral blood mononuclear cells (PBMCs) from the same donor are intradermally injected into the graft to induce psoriasis-like epidermal thickening (Wrone-Smith and Nickoloff J., Clin Invest. 15; 98(8):1878-87 (1996)).
After three weeks the mice are euthanized, the grafted skin was isolated, and the thickness of the epidermis is measured.

Assay [2] concerns human TNFα and human IL-17. The assay is described as follows: Inhibition of CXCL1 production from HT-29 cells induced by combination of IL-17 and TNF. The following applies: antibodies at fixed dose of 4 nM, 3 pM TNFα and 200 pM IL-17. In kind it is cell-based. On the procedure: As described above, HT-29 cells are human colorectal adenocarcinoma epithelial cells that naturally express the IL-17 and TNF receptors. Incubation of HT-29 cells with human TNFα and human IL-17 results in the production of CXCL1, which can be measured using a commercially available ELISA.
Testing is carried out in five replicate wells per treatment. Assay medium is used for “medium alone” and “IL-17+TNF alone”. Anti-IL-17 antibody (U.S. Pat. No. 7,838,638); anti-TNFα antibody (adalimumab); and combination of anti-IL-17 antibody/anti-TNF antibody are used as controls in the assay. Control antibodies are tested at the same molar range as the bispecific antibody. […]
HT-29 cells are routinely cultured in assay medium [McCoy's 5A containing 10% FBS, penicillinG (0.2 U/mL) and streptomycin (0.2 mcg/mL)]. […] Cell density is measured with Invitrogen Countess, and 20,000 HT-29 cells (in 100 μL) are added to each of the 96-well plates. […]
At the end of the assay, the plates are centrifuged (500×g for 5 minutes at room temperature), and the cell culture medium is transferred to polypropylene 96-well plates, which are sealed and frozen at −80° C. […] CXCL1 levels in medium are measured with a CXCL1 sandwich ELISA (R&D Systems DuoSet #DY275), as per the manufacturer's instructions. At the end of the ELISA reactions, plates are read at 450 nm on a microplate reader (Molecular Devices VersaMax Tunable).

Assay [3] deals with membrane bound human TNFα. Briefly: Inhibition of membrane bound human TNFα induced cytotoxicity in L929 cells. In kind it is cell-based. Conditions: average of 3 independent experiments+/−SEM; read-out: IC50, killing of L929 cells by human non-cleavable membrane bound TNFα CHO cells. On the procedure: The non-cleavable TNFα construct is stably transfected to Chinese hamster ovary (CHO) cells. These cells express membrane bound TNFα as shown by flow cytometry. Incubation of L929 cells with CHO cells expressing human non-cleavable membrane bound TNFα results in rapid L929 cell death.
CHO cells expressing membrane bound human TNFα are routinely maintained in selection medium (AM2001 media, an internal CHO growth media without MSX, 8 mM glutamine, GS supplement, HT supplement with 500 μg/mL G418). On the day of the assay, the cells are counted, rinsed with 1×PBS (no Ca^++ or Mg^++), centrifuged at 215×g for 5 mM and re-suspended at 50,000 cells/mL in L929 assay medium together with Actinomycin-D (6.25 μg/mL). 500 cells (in 10 μL) of cell suspension are added to each concentration of antibody mixtures that were incubated for 60 minutes at 37° C., 95% relative humidity, 5% CO2. […] The cell death is measured using an MTT cytotoxicity assay as described above for soluble TNFα L929 assay.

The next assay addresses human TNFα (Homo sapiens, UniProt P01375). The assay is described as follows: Inhibition of human TNFα-induced production of CXCL1 in vivo. Details: species or system mouse. Conditions: C57BI/6J mice; 16.7 nmol/kg subcutaneously; TNFα challenge two days later; plasma two hours after challenge. On the procedure: Two days later, mice receive a single intraperitoneal injection of human IL-17 (3 μg/mouse) or human TNFα (1 μg/mouse). Two hours after cytokine challenge, the mice are sacrificed and plasma is analyzed for CXCL1 using a commercial ELISA.

For orientation: IC50 means the concentration that inhibits the measured activity by half.

Chain of membrane bound human TNFα (P01375 89-233 limits assumed): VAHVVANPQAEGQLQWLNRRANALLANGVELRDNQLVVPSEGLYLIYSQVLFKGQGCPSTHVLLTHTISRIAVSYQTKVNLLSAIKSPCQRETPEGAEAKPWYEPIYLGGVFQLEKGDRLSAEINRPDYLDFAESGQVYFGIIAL
Chain of human TNFα (P01375 77-233 limits assumed): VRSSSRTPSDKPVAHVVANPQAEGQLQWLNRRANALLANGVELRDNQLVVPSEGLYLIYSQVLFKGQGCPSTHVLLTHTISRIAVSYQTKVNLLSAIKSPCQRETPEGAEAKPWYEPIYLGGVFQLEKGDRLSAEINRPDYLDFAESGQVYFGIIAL

For `C[C@H]1C[C@H]2[C@@H]3CCC4=CC(=O)C=C[C@]4(C)[C@@]3(F)[C@@H](O)C[C@]2(C)[C@@]1(O)C(=O)CO` [Betamethasone, betamethasone], in assay [1], the “Mean Epidermal Thickness” value is reported as 74.9 μm.

In the case of adalimumab [anti-TNFα], the “percent human CXCL1 left after incubation (TNF+IL-17 alone being 100%)” value in assay [2] is reported as 8.97+/−2.65%. As to “adalimumab with IgG4 isotype: TNFα neutralizing antibody (adalimumab with IgG4 isotype), positive control in L929 assays and in vivo CXCL1 (Table 2)”, in assay [3], the half-inhibitory concentration (IC50) stood at 0.669 nM. For the same compound, the “Average % inhibition of human TNFα-induced CXCL1 production in vivo” value with human TNFα is 89.4 ± 2%.

The values above are taken from patent US9416182B2, “Anti-TNF-anti-IL-17 bispecific antibodies” (Eli Lilly and Company, priority 2013, dated 2016).
